This note sets out measurements from publication PMC10528299, “Targeting FAK/PYK2 with SJP1602 for Anti-Tumor Activity in Triple-Negative Breast Cancer” (Current Issues in Molecular Biology, 2023).

Common to all, as to test: Eurofins kinase profiling
Type in all cases: biochemical

The target of one assay is T1, Pyk2(h) (Homo sapiens, UniProt Q14289).
T1 construct: purchased Eurofins KinaseProfiler
The note with it: read-out: residual kinase activity Pyk2(h). Put shortly:
(§1)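 Single-point screen at 1 µM compound; radiometric read-out of kinase activity using radiolabeled phosphate, per standard KinaseProfiler protocol.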

A further assay addresses T2, IGF-1R(h), activated (Homo sapiens, UniProt P08069).
T2 construct: purchased Eurofins KinaseProfiler
The note with it: 1 µM. In outline:
as §1

Another assay deals with T3, TAK1(h) (Homo sapiens, UniProt O43318).
T3 construct: purchased Eurofins KinaseProfiler
T3 sequence (O43318 1-303 limits assumed): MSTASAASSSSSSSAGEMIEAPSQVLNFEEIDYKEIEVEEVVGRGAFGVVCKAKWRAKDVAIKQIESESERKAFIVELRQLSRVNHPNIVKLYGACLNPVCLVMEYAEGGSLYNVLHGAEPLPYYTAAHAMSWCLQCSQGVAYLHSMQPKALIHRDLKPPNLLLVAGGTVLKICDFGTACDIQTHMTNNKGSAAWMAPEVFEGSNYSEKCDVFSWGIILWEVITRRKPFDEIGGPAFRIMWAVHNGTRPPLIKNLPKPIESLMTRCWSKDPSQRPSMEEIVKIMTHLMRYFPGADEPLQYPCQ
The note with it: read-out: residual kinase activity TAK1(h). Put shortly:
as §1

The next assay has as its target T4, FAK(h) (Homo sapiens, UniProt Q05397).
T4 construct: purchased Eurofins KinaseProfiler
The note with it: read-out: residual kinase activity FAK(h). Put shortly: as §1

The next assay deals with T5, FGFR3(h) (Homo sapiens, UniProt P22607).
T5 construct: purchased Eurofins KinaseProfiler
The note with it: read-out: residual kinase activity FGFR3(h). Put shortly:
as §1

Another assay has as its target T6, Mer(h) (Homo sapiens, UniProt Q12866).
T6 construct: purchased Eurofins KinaseProfiler
T6 sequence (Q12866 21-999): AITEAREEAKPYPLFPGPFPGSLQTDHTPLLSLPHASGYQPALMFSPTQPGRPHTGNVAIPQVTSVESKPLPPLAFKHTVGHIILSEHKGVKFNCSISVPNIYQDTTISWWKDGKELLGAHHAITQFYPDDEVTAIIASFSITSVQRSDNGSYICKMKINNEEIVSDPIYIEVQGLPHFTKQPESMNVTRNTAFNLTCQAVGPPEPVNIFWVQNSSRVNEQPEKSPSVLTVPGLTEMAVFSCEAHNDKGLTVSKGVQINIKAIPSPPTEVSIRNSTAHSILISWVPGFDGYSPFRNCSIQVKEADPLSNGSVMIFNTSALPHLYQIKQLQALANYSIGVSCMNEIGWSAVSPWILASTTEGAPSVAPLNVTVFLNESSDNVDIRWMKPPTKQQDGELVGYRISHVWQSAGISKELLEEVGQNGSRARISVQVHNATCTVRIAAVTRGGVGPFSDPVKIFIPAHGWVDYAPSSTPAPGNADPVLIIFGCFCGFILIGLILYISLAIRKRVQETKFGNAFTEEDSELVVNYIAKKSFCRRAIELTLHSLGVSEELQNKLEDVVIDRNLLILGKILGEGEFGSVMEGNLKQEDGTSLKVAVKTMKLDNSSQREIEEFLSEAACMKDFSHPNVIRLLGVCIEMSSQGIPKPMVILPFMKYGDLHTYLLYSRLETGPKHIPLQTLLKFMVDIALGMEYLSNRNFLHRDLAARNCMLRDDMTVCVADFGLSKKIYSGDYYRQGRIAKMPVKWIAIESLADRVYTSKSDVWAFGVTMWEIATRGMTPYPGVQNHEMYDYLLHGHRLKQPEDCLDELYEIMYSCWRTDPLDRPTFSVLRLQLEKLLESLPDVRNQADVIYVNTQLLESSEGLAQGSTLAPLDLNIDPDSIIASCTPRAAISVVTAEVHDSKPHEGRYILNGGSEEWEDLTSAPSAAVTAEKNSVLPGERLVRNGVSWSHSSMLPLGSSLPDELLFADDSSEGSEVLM
The note with it: read-out: residual kinase activity Mer(h). In outline:
as §1

The target of the next assay is T7, PKCα(h) (Homo sapiens, UniProt P17252).
T7 construct: purchased Eurofins KinaseProfiler
The note with it: read-out: residual kinase activity PKCα(h). In outline: as §1

The target of another assay is T8, Abl(T315I)(h) (Homo sapiens, UniProt P00519, T315I).
T8 construct: purchased Eurofins KinaseProfiler
The settings on record: read-out: residual kinase activity Abl(T315I)(h). In outline:
as §1

Another assay concerns the target T9, EGFR(L858R)(h) (Homo sapiens, UniProt P00533, L858R).
T9 construct: purchased Eurofins KinaseProfiler
The note with it: read-out: residual kinase activity EGFR(L858R)(h). In outline: as §1

In a further assay the target is T10, Met(h) (Homo sapiens, UniProt P08581).
T10 construct: purchased Eurofins KinaseProfiler
The note with it: for remaining activity at 1 µM: read-out: residual kinase activity Met(h). Put shortly:
as §1

Another assay concerns the target T11, DYRK2(h) (Homo sapiens, UniProt Q92630).
T11 construct: purchased Eurofins KinaseProfiler
T11 sequence (Q92630 1-601): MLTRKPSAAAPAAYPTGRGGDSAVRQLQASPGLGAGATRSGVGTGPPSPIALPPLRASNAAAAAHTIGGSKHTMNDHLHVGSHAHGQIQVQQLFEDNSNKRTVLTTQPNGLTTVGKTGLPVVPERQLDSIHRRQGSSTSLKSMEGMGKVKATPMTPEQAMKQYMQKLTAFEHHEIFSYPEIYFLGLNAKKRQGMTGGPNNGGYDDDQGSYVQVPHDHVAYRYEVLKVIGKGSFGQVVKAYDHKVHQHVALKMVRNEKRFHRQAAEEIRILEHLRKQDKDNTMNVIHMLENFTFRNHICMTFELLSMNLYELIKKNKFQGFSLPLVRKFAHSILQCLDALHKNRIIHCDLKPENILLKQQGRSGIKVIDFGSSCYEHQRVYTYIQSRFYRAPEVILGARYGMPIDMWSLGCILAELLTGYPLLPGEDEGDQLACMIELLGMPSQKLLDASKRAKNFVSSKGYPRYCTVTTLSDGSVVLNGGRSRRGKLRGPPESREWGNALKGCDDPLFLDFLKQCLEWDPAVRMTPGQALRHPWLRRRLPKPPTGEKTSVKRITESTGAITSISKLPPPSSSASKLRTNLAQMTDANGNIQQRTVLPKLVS
The settings on record: read-out: residual kinase activity DYRK2(h). In outline: as §1

The target in the next assay is T12, DNA-PK(h) (Homo sapiens, UniProt P78527).
T12 construct: purchased Eurofins KinaseProfiler
The settings on record: read-out: residual kinase activity DNA-PK(h). In outline:
as §1

T5 sequence (P22607 23-806): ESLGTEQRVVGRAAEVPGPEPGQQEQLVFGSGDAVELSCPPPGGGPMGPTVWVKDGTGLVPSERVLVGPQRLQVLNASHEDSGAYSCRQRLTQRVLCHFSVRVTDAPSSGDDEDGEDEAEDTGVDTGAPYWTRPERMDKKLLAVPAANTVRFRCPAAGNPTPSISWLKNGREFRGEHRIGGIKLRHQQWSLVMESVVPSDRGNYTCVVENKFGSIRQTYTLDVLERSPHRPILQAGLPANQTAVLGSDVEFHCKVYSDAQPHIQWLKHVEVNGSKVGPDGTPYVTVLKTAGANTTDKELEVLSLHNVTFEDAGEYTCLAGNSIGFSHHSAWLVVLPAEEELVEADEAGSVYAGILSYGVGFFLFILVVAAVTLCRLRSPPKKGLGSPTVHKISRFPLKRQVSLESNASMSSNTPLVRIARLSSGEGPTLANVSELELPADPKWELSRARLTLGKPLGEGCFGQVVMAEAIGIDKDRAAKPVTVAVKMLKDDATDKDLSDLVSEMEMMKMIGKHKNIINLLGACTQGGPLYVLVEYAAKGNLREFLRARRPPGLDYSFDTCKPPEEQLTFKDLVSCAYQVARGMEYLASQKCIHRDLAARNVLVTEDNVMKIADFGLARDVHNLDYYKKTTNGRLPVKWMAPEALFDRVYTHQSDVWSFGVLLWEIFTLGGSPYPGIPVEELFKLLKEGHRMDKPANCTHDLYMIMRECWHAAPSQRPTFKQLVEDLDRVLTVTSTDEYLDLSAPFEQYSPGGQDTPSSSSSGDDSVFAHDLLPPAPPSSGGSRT
T10 sequence (P08581 25-1390): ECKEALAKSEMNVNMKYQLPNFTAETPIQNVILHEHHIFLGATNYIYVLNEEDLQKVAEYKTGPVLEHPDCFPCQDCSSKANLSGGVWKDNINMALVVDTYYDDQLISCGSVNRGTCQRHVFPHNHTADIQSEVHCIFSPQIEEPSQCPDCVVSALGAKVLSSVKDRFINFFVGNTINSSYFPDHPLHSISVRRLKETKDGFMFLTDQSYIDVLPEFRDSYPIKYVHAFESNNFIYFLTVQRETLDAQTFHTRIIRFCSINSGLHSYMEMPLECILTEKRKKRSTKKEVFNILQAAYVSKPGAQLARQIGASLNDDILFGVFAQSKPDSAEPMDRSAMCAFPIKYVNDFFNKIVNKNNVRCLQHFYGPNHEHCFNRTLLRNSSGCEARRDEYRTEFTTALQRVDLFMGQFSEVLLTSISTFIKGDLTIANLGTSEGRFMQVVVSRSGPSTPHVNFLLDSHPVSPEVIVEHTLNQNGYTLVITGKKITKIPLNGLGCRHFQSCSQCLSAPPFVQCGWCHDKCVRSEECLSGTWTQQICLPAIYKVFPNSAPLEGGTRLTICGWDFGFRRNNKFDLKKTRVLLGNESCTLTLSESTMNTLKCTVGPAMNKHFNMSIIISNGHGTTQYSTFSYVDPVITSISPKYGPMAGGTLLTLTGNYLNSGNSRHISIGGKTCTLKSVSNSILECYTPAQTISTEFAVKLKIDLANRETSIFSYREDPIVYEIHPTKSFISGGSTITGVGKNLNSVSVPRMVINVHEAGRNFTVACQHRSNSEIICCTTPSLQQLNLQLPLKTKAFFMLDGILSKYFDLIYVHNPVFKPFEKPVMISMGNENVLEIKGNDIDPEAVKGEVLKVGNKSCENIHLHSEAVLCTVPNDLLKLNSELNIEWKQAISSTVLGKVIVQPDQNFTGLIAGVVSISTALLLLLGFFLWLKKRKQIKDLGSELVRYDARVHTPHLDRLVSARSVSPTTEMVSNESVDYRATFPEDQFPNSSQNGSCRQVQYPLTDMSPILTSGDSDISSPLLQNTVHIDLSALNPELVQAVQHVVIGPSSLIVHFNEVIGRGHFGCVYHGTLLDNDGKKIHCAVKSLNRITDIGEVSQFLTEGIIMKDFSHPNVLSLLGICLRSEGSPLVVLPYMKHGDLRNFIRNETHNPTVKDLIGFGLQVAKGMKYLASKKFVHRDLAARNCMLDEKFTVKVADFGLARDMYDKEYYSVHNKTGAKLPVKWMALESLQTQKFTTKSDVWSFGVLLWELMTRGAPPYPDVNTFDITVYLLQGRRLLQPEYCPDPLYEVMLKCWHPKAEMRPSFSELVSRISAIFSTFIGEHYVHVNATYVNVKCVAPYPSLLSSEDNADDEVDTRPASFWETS
T1 sequence (Q14289 whole entry): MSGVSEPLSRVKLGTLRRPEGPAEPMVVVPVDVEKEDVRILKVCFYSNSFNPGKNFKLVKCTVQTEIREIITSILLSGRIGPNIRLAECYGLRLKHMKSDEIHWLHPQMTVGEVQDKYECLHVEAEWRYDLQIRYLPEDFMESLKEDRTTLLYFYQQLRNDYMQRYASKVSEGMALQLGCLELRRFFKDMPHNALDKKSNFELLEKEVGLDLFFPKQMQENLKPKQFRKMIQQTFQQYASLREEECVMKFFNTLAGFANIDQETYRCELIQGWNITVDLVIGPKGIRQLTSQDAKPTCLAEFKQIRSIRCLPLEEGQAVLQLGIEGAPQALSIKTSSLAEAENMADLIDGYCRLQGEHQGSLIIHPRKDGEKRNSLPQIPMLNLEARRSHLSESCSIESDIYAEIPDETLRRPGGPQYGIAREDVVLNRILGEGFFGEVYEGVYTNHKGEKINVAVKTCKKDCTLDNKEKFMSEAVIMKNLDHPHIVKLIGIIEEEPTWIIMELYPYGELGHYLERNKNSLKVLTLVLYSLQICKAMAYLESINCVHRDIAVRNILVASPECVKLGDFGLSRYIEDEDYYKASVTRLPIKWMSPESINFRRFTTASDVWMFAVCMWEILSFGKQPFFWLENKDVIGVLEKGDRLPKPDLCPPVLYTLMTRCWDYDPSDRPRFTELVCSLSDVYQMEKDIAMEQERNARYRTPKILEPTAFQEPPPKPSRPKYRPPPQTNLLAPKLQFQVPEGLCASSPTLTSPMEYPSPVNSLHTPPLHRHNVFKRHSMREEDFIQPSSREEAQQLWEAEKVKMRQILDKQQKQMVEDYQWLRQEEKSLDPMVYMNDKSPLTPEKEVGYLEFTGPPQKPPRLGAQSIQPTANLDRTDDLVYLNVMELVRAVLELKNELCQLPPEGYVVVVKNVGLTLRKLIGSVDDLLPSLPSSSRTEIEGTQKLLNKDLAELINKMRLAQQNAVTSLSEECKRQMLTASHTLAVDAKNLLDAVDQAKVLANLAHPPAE
T4 sequence (Q05397 whole entry): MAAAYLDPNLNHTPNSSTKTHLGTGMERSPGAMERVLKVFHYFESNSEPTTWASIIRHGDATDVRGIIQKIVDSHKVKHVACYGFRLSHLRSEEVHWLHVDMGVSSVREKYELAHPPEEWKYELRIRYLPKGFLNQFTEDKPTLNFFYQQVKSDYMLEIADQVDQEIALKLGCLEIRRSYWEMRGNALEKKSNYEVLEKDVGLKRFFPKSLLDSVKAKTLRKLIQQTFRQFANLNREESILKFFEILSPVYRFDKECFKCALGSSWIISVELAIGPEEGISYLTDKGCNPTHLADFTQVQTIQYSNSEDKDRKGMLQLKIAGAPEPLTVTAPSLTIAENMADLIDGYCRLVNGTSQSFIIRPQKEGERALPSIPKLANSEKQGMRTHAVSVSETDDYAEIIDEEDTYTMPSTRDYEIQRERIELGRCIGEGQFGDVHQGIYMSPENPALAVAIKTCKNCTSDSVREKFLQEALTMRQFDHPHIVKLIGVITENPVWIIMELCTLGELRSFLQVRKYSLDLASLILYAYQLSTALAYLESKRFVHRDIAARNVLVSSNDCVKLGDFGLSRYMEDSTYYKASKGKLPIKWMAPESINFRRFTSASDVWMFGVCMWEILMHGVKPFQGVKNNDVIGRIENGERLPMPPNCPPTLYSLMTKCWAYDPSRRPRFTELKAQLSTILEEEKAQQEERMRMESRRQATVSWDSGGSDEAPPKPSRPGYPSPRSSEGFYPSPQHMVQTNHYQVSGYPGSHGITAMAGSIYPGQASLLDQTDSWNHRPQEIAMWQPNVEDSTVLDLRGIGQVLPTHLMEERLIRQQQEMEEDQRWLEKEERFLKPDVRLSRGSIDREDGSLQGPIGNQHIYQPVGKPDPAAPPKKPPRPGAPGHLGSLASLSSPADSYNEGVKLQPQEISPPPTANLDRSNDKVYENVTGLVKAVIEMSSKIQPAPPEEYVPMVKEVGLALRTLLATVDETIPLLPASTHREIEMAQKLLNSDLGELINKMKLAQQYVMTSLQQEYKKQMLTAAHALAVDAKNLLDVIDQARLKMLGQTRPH

`CNC(=O)c1cccc(C)c1Nc1nc(Nc2ccc(N3CCN(C4C5CC6CC4CC(O)(C6)C5)CC3)cc2OC)ncc1C(F)(F)F` (stereo not shown) [SJP1602, 2-((2-((4-(4-((2s,5r)-5-hydroxyadamantan-2-yl)piperazin-1-yl)-2-methoxyphenyl)amino)-5-(trifluoromethyl)pyrimidin-4-yl)amino)-N,3-dimethylbenzamide]: the remaining activity at 1 µM at Pyk2(h) stood at 4%; on TAK1(h), 113%; on FAK(h), 3%; at FGFR3(h) it was 86%; on Mer(h), 60%; on PKCα(h), 100%. Further, the remaining activity at 1 µM at Abl(T315I)(h) is 106%; at EGFR(L858R)(h) it was 133%; on Met(h), 21%; on DYRK2(h), 97%; on DNA-PK(h) it was 98%. Besides, the “residual kinase activity IGF-1R(h), activated” value on IGF-1R(h), activated was 105. Besides, at 1 µM the inhibition on Met(h) was 79%.

As for `CNC(=O)c1ccc(Nc2ncc(C(F)(F)F)c(NCc3nccnc3N(C)S(C)(=O)=O)n2)cc1` [VS-6063, Defactinib], the remaining activity at 1 µM at Pyk2(h) was 6%; at TAK1(h), 71%; at FAK(h), -6%; at FGFR3(h) it was 44%; at Mer(h), 7%; at PKCα(h), 92%. In addition, the remaining activity at 1 µM on Abl(T315I)(h) turned out to be 44%; on EGFR(L858R)(h), 134%; on Met(h) it was 42%; on DYRK2(h), 80%; at DNA-PK(h), 85%. For the same compound, on IGF-1R(h), activated, the “residual kinase activity IGF-1R(h), activated” value amounted to 74.

Regarding `CONC(=O)c1ccccc1Nc1cc(Nc2cc(C)nn2C(C)C)ncc1Cl` [GSK2256098], the remaining activity at 1 µM at Pyk2(h) was 60%; on TAK1(h), 95%; at FAK(h) it was -1%; at FGFR3(h), 91%; on Mer(h) it was 97%; on PKCα(h), 95%. In addition, the remaining activity at 1 µM was 92% at Abl(T315I)(h); 33% on EGFR(L858R)(h); 76% at Met(h); 52% on DYRK2(h); 98% on DNA-PK(h). At IGF-1R(h), activated, the “residual kinase activity IGF-1R(h), activated” value amounted to 108.
